Experimental data published in patent publication US20120164083A1, “Sweetness Enhancers Including Rebaudioside A or D” (Redpoint Bio Corporation, priority 2009, published 2012).
Where “and” joins values, the source holds several entries; their conditions need not be identical. Identical values can stand only once. Entries after “also recorded” stand apart in the source; their conditions may differ.

What was measured:
Type in all cases: in vivo, human
[1] = test system: expert taste panel; assay: double-blind controlled sweetness intensity test of solutions, sequential monadic, sip and spit (Example 1 protocol); details: for sweetness of the solution compared with 7% (w/v-%) fructose solution: 300 μM in 5% (w/v-%) fructose solution; for sweetness of the solution compared with 7% (w/v-%) sucrose solution: 300 μM in 5% (w/v-%) sucrose solution, 20 judges; for mean sweetness intensity score: scale 0 to 8
[2] = test system: expert taste panel; assay: double-blind controlled sweetness intensity test of enhancer combinations, taste and swallow (Example 12 protocol); details: 5% (w/v-%) sucrose solution alone; scale 0 to 8
Method: The sweetness enhancing effect of the combination of 40 μM Reb A (purity>95%) and 300 μM Reb C (Chromadex, CA; purity 94.9%; 2.9% impurities other than water) on 5% (w/v-%) sucrose solution was evaluated in a double-blind controlled test conducted according to the following protocol. Four products were evaluated by trained judges as follows: • low concentration sucrose (5% w/v) • low concentration sucrose+sweetness enhancer 1 (40 μM Reb A) • low concentration sucrose+sweetness enhancer 2 (300 μM Reb C) • low concentration sucrose+sweetness enhancer 1+sweetness enhancer 2
The products were evaluated using a sequential monadic test protocol. Subjects were given three 10 ml samples to evaluate. Each subject was directed to taste and swallow each sample and then assess the sweetness intensity of the sample. The intensity was rated on a score card by marking a numerical value along a scale from 0 to 8 (e.g., 0=none, 2=slight, 4=definite, 8=very strong). Following the decision regarding the sweetness intensity, subjects were instructed to vigorously rinse their mouth with water. Subjects then were given unsalted crackers to cleanse the palate. […] A second sample was then presented and evaluated as above and the same procedure was followed until all three products were evaluated. […]

[3] = test system: subjects; assay: qualitative taste evaluation of Reb C water solutions (forced-choice and open report, Example 3); details: for qualitative taste description: one line per subject
Method: Subjects were asked to sip most or all of the 10 ml from the first cup, swish the liquid in their oral cavity, and expectorate into a cup, then rinse their mouths vigorously with water. Soon thereafter, the contents of the second cup were sampled in the same manner. Then, subjects were asked to choose the sweeter of the two samples, or if not sweet, to describe the qualitative taste profile of the sample having a detectable taste. […] The subjects have the following qualitative taste descriptions: […]

[4] = test system: expert taste panel; assay: double-blind controlled sweetness intensity test in iced tea, taste and swallow (Example 6 protocol)
Method: The sweetness enhancing effect of 300 μM Reb C (Chromadex, CA; purity 94.9%; […]) (equivalent to the sweetness intensity of an 8% (w/v-%) sucrose solution) was evaluated in a double-blind controlled test conducted according to the following protocol. Three products were evaluated by trained judges as follows: • high concentration HFCS (14.29% w/v; equivalent to 11% w/v sucrose solution) • low concentration HFCS (10.39% w/v; equivalent to 8% w/v sucrose solution) • low concentration HFCS+sweetness enhancer (test compound)
The products were evaluated using a sequential monadic test protocol. Subjects were given three 10 ml samples to evaluate. Each subject was directed to taste and swallow each sample and then assess the sweetness intensity of the sample. The intensity was rated on a score card by marking a numerical value along a scale from 0 to 8 (e.g., 0=none, 2=slight, 4=definite, 8=very strong). Following the decision regarding the sweetness intensity, subjects were instructed to vigorously rinse their mouth with water. Subjects then were given unsalted crackers to cleanse the palate. A period of 10 minutes elapsed between presentations of each sample to reduce the potential influence of residual taste effects. A second sample was then presented and evaluated as above and the same procedure was followed until all three products were evaluated. […]

[5] = test system: panelists; assay: quantitative flavor profile by trained panelists (Example 11)
Method: The taste of 150, 300, and 600 μM Reb C was evaluated by a test group. 10 panelists were trained over a period of a few weeks to provide a quantitative flavor profile of Reb C. Panelists first were trained using standard tastants representing the different taste modalities given in FIG. 10 (i.e., sweet, bitter, salt, sour, and licorice). They then were trained to use the scales when flavors were mixed together. All intensity ratings are on scales ranging from 0 (no taste) to 8 (highest intensity). The intensity rating for sweet is essentially the same as used in Examples 1 and 6. The taste profiles were obtained for 150, 300, and 600 μM Reb C. Reb A (0.2 mg/ml, a concentration used in some food/beverage applications for sweetening) was also evaluated in the test for comparison. The scale is not linear at the bottom. A rating of 1 is around the threshold for sweetness detection.

[6] = 300 μM in 8% (w/v-%) sucrose solution
[7] = 250 μM water solution, five subjects

## C=C1C[C@@]23CC[C@H]4[C@@](C)(CCC[C@@]4(C)C(=O)O[C@@H]4O[C@H](CO)[C@@H](O)[C@H](O)[C@H]4O)[C@@H]2CC[C@]1(O[C@@H]1O[C@H](CO)[C@@H](O)[C@H](O)[C@H]1O[C@@H]1O[C@@H](C)[C@H](O)[C@@H](O)[C@H]1O)C3 [Dulc A, dulcoside A]
[1]
  sweetness of the solution compared with 7% (w/v-%) fructose solution: achieved that of a 7% (w/v-%) fructose solution
  sweetness of the solution compared with 7% (w/v-%) sucrose solution: achieved that of a 7% (w/v-%) sucrose solution
[1]; [6]
  off-tastes: No off-tastes were detected
  sweetness of the solution compared with 11% (w/v-%) sucrose solution: approached that of an 11% (w/v-%) sucrose solution
[1]; 8% (w/v-%) sucrose solution with 300 μM Dulc A
  mean sweetness intensity score: 6.3

## OC[C@H]1O[C@@](CO)(O[C@H]2O[C@H](CO)[C@@H](O)[C@H](O)[C@H]2O)[C@@H](O)[C@@H]1O [sucrose, α-D-glucopyranosyl-(1→2)-β-D-fructofuranose, reference compound]
[1]; 8% (w/v-%) sucrose solution alone
  mean sweetness intensity score: 5.30 and 5.0
[1]; 11% (w/v-%) sucrose solution alone
  mean sweetness intensity score: 6.95 and 6.7
[2]
  mean sweetness intensity: about 4

## rebaudioside C [Reb C]
[3]; [7]
  forced-choice identification of the sample against water: All subjects correctly identified the sample containing Reb C
  qualitative taste description: Metallic, not sweet; also recorded: Aversive (“Nasty”); also recorded: Slight sweet, astringent; also recorded: Faintly sweet; also recorded: Slight sweet/licorice
[3]; 250 and 300 μM in water, four subjects
  qualitative taste description: Both concentrations bitter and/or licorice
[4]; 300 μM in iced tea with 8% (w/v-%) sucrose
  sweetness compared with 8% and 11% (w/v-%) sucrose: between that of the 8% (w/v-%) solution and that of an 11% (w/v-%) sucrose solution
[4]; 300 μM in iced tea with 10.39% (w/v-%) HFCS
  sweetness compared with 14.29% (w/v-%) HFCS solution (equivalent to 11% sucrose): indistinguishable from that of a 14.29% (w/v-%) HFCS solution
[1]; 150 μM in 8% (w/v-%) sucrose solution
  sweetness of the solution compared with 8% and 11% (w/v-%) sucrose solutions: between that of the 8% (w/v-%) sucrose solution and that of an 11% (w/v-%) sucrose solution
[1]
  sweetness of the solution compared with 7% (w/v-%) fructose solution: close to that of a 7% (w/v-%) fructose solution
  sweetness of the solution compared with 7% (w/v-%) sucrose solution: indistinguishable from that of a 7% (w/v-%) sucrose solution
[1]; [6]
  sweetness of the solution compared with 11% (w/v-%) sucrose solution: close to that of an 11% (w/v-%) sucrose solution
[1]; 8% (w/v-%) sucrose solution with 150 μM Reb C
  mean sweetness intensity score: 6.10
[5]; 150, 300 and 600 μM alone
  unpleasant tastes, bitter and licorice: barely detected
[5]; 150, 300 and 600 μM, scale 0 to 8
  intrinsic sweetness: little or no intrinsic sweetness
[5]; combined with sugar
  unpleasant tastes, bitter and licorice: undetected
